# In patent US12600714B2, “Substituted pyrazinecarboxamide compounds for treating diseases related to EGFR mutation” (WIGEN BIOMEDICINE TECHNOLOGY (SHANGHAI) CO., LTD., priority 2020, dated 2026):
# Tested on: EGFR (del19/T790M/C797S)
# Experiment: HTRF inhibitory activity assay against EGFR (del19/T790M/C797S) enzyme
# Assay type: biochemical
# Protocol: Inhibitory Activity Assay of the Compounds Disclosed Herein Against EGFR (del19/T790M/C797S), EGFR (L858R/T790M/C797S) or EGFR (WT) Enzymes
# The inhibitory effects of the compounds against EGFR (del19/T790M/C797S), EGFR (L858R/T790M/C797S) or EGFR (WT) enzyme activity was determined by using HTRF. The procedures are as follows:
# The WT or mutant EGFR proteins were incubated with a serially diluted compounds at 28° C. for 10 min followed by addition of biotin-labeled general tyrosine kinase (TK) substrate and ATP. The mixture was incubated at room temperature for 40 min for reaction. After the termination of the reaction, an Eu3+-Cryptate-labeled antibody against TK and streptavidin-XL665 were added and the mixture was incubated at room temperature for 60 min. The luminescences at 615 nm and 665 nm were detected and the ratio of 665/615 was calculated to quantify the level of TK substrate phosphorylation. Inhibition % and IC50 of the compounds were calculated relative to the control group.
row,Compound,EGFR (del19/T790M/C797S) inhibition (%) (0.3 nM compound)
1,CN1CCN(C2CCN(c3ccc(Nc4nc(NC5CCOCC5)c(-c5ccc(F)cc5)nc4C(N)=O)cc3)CC2)CC1 [compound 64],+ (+ indicates an inhibition less than or equal to 20%)
2,CN1CCN(C2CCN(c3ccc(Nc4nc(NC5CCOCC5)c(-c5ccc(Cl)cc5)nc4C(N)=O)cc3)CC2)CC1 [compound 65],++ (++ indicates an inhibition from 20% to 50%)
3,CN1CCN(C2CCN(c3ccc(Nc4nc(N[C@@H]5CCOC5)c(-c5ccccc5)nc4C(N)=O)cc3)CC2)CC1 [compound 66],+ (+ indicates an inhibition less than or equal to 20%)
4,COc1cc(-c2nc(C(N)=O)c(Nc3ccc(N4CCC(N5CCN(C)CC5)CC4)cc3)nc2NC2CCOCC2)ccn1 [compound 67],+ (+ indicates an inhibition less than or equal to 20%)
5,CN1CCN(C2CCN(c3ccc(Nc4nc(NC5CCOCC5)c(C5=CCNC5)nc4C(N)=O)cc3)CC2)CC1 [compound 68],+ (+ indicates an inhibition less than or equal to 20%)
6,CN1CCN(C2CCN(c3ccc(Nc4nc(N[C@H]5CCOC5)c(-c5ccccc5)nc4C(N)=O)cc3)CC2)CC1 [compound 70],+ (+ indicates an inhibition less than or equal to 20%)
7,CN1CCN(C2CCN(c3ccc(Nc4nc(NC5CCOCC5)c(-c5ccccc5CO)nc4C(N)=O)cc3)CC2)CC1 [compound 71],+ (+ indicates an inhibition less than or equal to 20%)
8,CN1CCN(C2CCN(c3ccc(Nc4nc(NC5CCOCC5)c(-c5cncnc5)nc4C(N)=O)cc3)CC2)CC1 [compound 72],+ (+ indicates an inhibition less than or equal to 20%)
9,CN1CCN(C2CCN(c3ccc(Nc4nc(NC5CCOCC5)c(-c5ccccc5C(F)F)nc4C(N)=O)cc3)CC2)CC1 [compound 82],+ (+ indicates an inhibition less than or equal to 20%)
10,CN1CCN(C2CCN(c3ccc(Nc4nc(NC5CCOCC5)c(-c5cccc(NS(C)(=O)=O)c5)nc4C(N)=O)cc3)CC2)CC1 [compound 90],+ (+ indicates an inhibition less than or equal to 20%)
11,CN1CCN(C2CCN(c3ccc(Nc4nc(NC5CCOCC5)c(-c5ccoc5)nc4C(N)=O)cc3)CC2)CC1 [compound 91],++ (++ indicates an inhibition from 20% to 50%)
12,CN1CCN(C2CCN(c3ccc(Nc4nc(NC5CCOCC5)c(-c5cccc(N)c5)nc4C(N)=O)cc3)CC2)CC1 [compound 92],++ (++ indicates an inhibition from 20% to 50%)
13,CN1CCN(C2CCN(c3ccc(Nc4nc(NC5CCOCC5)c(-c5ccsc5)nc4C(N)=O)cc3)CC2)CC1 [compound 93],++ (++ indicates an inhibition from 20% to 50%)
14,CN1CCN(C2CCN(c3ccc(Nc4nc(NC5CCOCC5)c(-c5ccc(N)cc5)nc4C(N)=O)cc3)CC2)CC1 [compound 95],++ (++ indicates an inhibition from 20% to 50%)
15,CN1CCN(C2CCN(c3ccc(Nc4nc(NC5CCOCC5)c(-c5ccccc5N)nc4C(N)=O)cc3)CC2)CC1 [compound 98],+ (+ indicates an inhibition less than or equal to 20%)
16,CN1CCN(C2CCN(c3ccc(Nc4nc(NC5CCOCC5)c(-c5ccccc5O)nc4C(N)=O)cc3)CC2)CC1 [compound 99],+ (+ indicates an inhibition less than or equal to 20%)
17,CC(=O)Nc1cccc(-c2nc(C(N)=O)c(Nc3ccc(N4CCC(N5CCN(C)CC5)CC4)cc3)nc2NC2CCOCC2)c1 [compound 100],+ (+ indicates an inhibition less than or equal to 20%)
18,CN1CCN(C2CCN(c3ccc(Nc4nc(NC5CCOCC5)c(-c5ccc(C(F)F)cc5)nc4C(N)=O)cc3)CC2)CC1 [compound 101],+ (+ indicates an inhibition less than or equal to 20%)
